Source: patent US6403616B1, “Chemical process and pharmaceutical formulation” (AstraZeneca AB, priority 1998, dated 2002)

Assay: pKa of omeprazole magnesium
Format: physicochemical
Excerpt: Preferably, a suspension of omeprazole magnesium should have a pH of 9.5 or above in a 10% (w/w) suspension of the bulk substance.

pKa: 8.8
SMILES: COc1ccc2[n-]c([S+]([O-])Cc3ncc(C)c(OC)c3C)nc2c1.COc1ccc2[n-]c([S+]([O-])Cc3ncc(C)c(OC)c3C)nc2c1.[Mg+2] (stereo not shown) [omeprazole magnesium]
